Data: patent US20230285227A1, “INGESTIBLE CAPSULES” (Massachusetts Institute of Technology, priority 2022, published 2023)
Where “and” joins values, the source holds several entries; their conditions need not be identical. Equal entries are not always repeated.

Key:
[1] = Franz cell vancomycin permeability, capsule vs direct dilution in donor well; conditions: 25 tissue samples from n=5 animals, control = direct dilution in donor well, p<0.05
Method: Both helical and smooth exteriors were assessed. […] Given inter-animal variability of tissue properties, a ratio of permeability induced by the capsule to the control condition was calculated using a matched-pair format per animal.

[2] = vancomycin permeability in isolated small intestine sections of anesthetized swine, mesenteric venous blood; conditions: 100 mg vancomycin, capsules vs sham control pills, p<0.001
From the text: In anesthetized swine, sections of the small intestine were isolated to serve as independent testing sites while controlling for animal-specific properties such as hydration status, peristaltic rate, blood pressure, and perfusion.

[3] = FITC-dextran uptake with capsule vs direct application
From the text: To assay the capability of the capsule to assist in the delivery of larger molecules, fluorescein isothiocyanate-(FITC) dextran having various molecular weights were delivered using the capsule, at various motor frequencies, and compared to direct application (controls).

[4] = oral insulin delivery via capsule or endoscopic spray in the small intestine, blood glucose and insulin monitoring; format: in vivo, swine
Method: Blood glucose and insulin concentrations were monitored for a 75-minute period with the drug delivery starting at 15 minutes.

[5] = oral insulin, background; cited from earlier work

Compound: CN[C@H](CC(C)C)C(=O)N[C@H]1C(=O)N[C@@H](CC(N)=O)C(=O)N[C@H]2C(=O)N[C@H]3C(=O)N[C@H](C(=O)N[C@H](C(=O)O)c4cc(O)cc(O)c4-c4cc3ccc4O)[C@H](O)c3ccc(c(Cl)c3)Oc3cc2cc(c3O[C@@H]2O[C@H](CO)[C@@H](O)[C@H](O)[C@H]2O[C@H]2C[C@](C)(N)[C@H](O)[C@H](C)O2)Oc2ccc(cc2Cl)[C@H]1O [vancomycin]
- increase of vancomycin drug permeability with capsule delivery compared to controls [1]: over 10 fold
- tissue permeability with capsules relative to control [2]: ≥ 20 times the control

Compound: fluorescein isothiocyanate-(FITC) dextran
- uptake increase at 40 kDa and 70 kDa ([3]; molecular weights 40 kDa and 70 kDa): greatest increases
- uptake with the capsule compared to direct application ([3]; molecular weights as high as 150 kDa, various motor frequencies): significantly increase uptake

Compound: insulin
- variance of blood glucose from baseline ([4]; 100 units insulin by endoscopic spray in the small intestine (control), n=5): 16.6 ± 17.3 mg/dL
- average blood glucose reduction ([4]; 100 units insulin via the capsule, n=7 animals, 75-minute monitoring): 55.54 ± 16.1 mg/dL
- uptake dynamics compared to subcutaneous or IV injection ([4]; capsule delivery of insulin): more gradual uptake
- time to changes in plasma glucose levels ([4]; insulin via the capsule): ≤ 15 min
- animals with hypoglycemia (blood glucose<20 mg/dL) necessitating dextrose infusion ([4]; insulin via the capsule, ensued at 60 minutes): three and 3 out of 7
- oral bioavailability [5]: less than 2.5%
